Results from the supplement of paper PMC10307832.

Tests used:
Assay in all cases: relative viability (nuclei count vs DMSO), 5 days (fraction); higher = more cells survive
[1] = compound: C[C@@]1(C(=O)Nc2ccc(F)nc2)CCCN1c1nc(Nc2cc(C3CC3)n[nH]2)c2cccn2n1 + CC(C)C[C@H](NC(=O)[C@H](Cc1ccccc1)NC(=O)c1cnccn1)B(O)O [Bortezomib] (partner 0.002 µM)
Summary of the method: (§1)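 Relative viability equals treated-well nuclei counts divided by vehicle-well nuclei counts. Counts came from 4× images of lung cancer cell lines grown in 1536-well plates for 5 days after pin-tool dosing on the day after seeding. Dosing used one drug alone or a fixed anchor-drug dose plus five library-drug doses (not always all listed) in √10 steps, and values are medians of duplicate plates.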

[2] = compound: C[C@@]1(C(=O)Nc2ccc(F)nc2)CCCN1c1nc(Nc2cc(C3CC3)n[nH]2)c2cccn2n1 + Cc1nc(Nc2ncc(C(=O)Nc3c(C)cccc3Cl)s2)cc(N2CCN(CCO)CC2)n1 [Dasatinib] (partner 0.075 µM)
Summary of the method: as §1

[3] = compound: C[C@@]1(C(=O)Nc2ccc(F)nc2)CCCN1c1nc(Nc2cc(C3CC3)n[nH]2)c2cccn2n1 + O=C(CCCCCCC(=O)Nc1ccccc1)NO [Vorinostat] (partner 1 µM)
Summary of the method: as §1

Motesanib + Pemetrexed = compound: CC1(C)CNc2cc(NC(=O)c3cccnc3NCc3ccncc3)ccc21 [Motesanib] + Nc1nc2[nH]cc(CCc3ccc(C(=O)N[C@@H](CCC(=O)O)C(=O)O)cc3)c2c(=O)[nH]1 [Pemetrexed] (partner 0.2 µM)
Summary of the method: as §1

Cell Line	relative viability ([1]; first compound 0.04 µM)	relative viability ([1]; first compound 0.1265 µM)	relative viability ([1]; first compound 0.4 µM)	relative viability ([1]; first compound 1.265 µM)	relative viability ([2]; first compound 0.04 µM)	relative viability ([2]; first compound 0.1265 µM)	relative viability ([2]; first compound 0.4 µM)	relative viability ([2]; first compound 1.265 µM)	relative viability ([3]; first compound 0.04 µM)	relative viability ([3]; first compound 0.1265 µM)	relative viability ([3]; first compound 0.4 µM)	relative viability ([3]; first compound 1.265 µM)	relative viability (Motesanib + Pemetrexed; first compound 0.01 µM)	relative viability (Motesanib + Pemetrexed; first compound 0.03162 µM)	relative viability (Motesanib + Pemetrexed; first compound 0.1 µM)	relative viability (Motesanib + Pemetrexed; first compound 0.3162 µM)	relative viability (Motesanib + Pemetrexed; first compound 1 µM)
NCI-H650	0.699	0.762	0.605	0.46	0.404	0.283	0.321	0.29	0.42	0.195	0.334	0.257	0.853	0.942	0.803	0.956	0.859
PC-3 [JPC-3]	0.831	0.819	0.788	0.874	1.09	0.94	0.891	0.787	0.717	0.718	0.755	0.525	1.02	1.04	1.04	1.03	0.974
